Experimental data taken from patent US20210045385A1, “PYRIDAZINONE-SUBSTITUTED KETOXIMES AS HERBICIDES” (FMC Corporation, priority 2018, published 2021).

How the values were obtained:
Type in all cases: in vivo
[1] = system: Italian ryegrass (Lolium multiflorum); assay: Test A preemergence, visual plant response rating; settings: for Ryegrass, Italian plant response rating: 125 g ai/ha, preemergence, 0 to 100 scale, 0 no effect, 100 complete control; for Ryegrass, Italian plant response rating (0 to 100 scale): 500 g ai/ha Preemergence, approx. 10 days
Description: (§1) Seeds of plant species selected from barnyardgrass (Echinochloa crus-galli), kochia (Kochia scoparia), ragweed (common ragweed, Ambrosia elatior), Italian ryegrass (Lolium multiflorum), foxtail, giant (giant foxtail, Setaria faberii), foxtail, green (green foxtail, Setaria viridis), and pigweed (Amaranthus retroflexus) were planted into a blend of loam soil and sand and treated preemergence with a directed soil spray using test chemicals formulated in a non-phytotoxic solvent mixture which included a surfactant.
(§2) At the same time, plants selected from these weed species and also wheat (Triticum aestivum), corn (Zea mays), blackgrass (Alopecurus myosuroides), and galium (catchweed bedstraw, Galium aparine) were planted in pots containing the same blend of loam soil and sand and treated with postemergence applications of test chemicals formulated in the same manner. Plants ranged in height from 2 to 10 cm and were in the one- to two-leaf stage for the postemergence treatment. Treated plants and untreated controls were maintained in a greenhouse for approximately 10 days, after which time all treated plants were compared to untreated controls and visually evaluated for injury. Plant response ratings, summarized in Table A, are based on a 0 to 100 scale where 0 is no effect and 100 is complete control. A dash (-) response means no test result.

[2] = system: barnyardgrass (Echinochloa crus-galli); assay: Test A preemergence, visual plant response rating; settings: for Barnyardgrass plant response rating: 125 g ai/ha, preemergence, 0 to 100 scale, 0 no effect, 100 complete control; for Barnyardgrass plant response rating (0 to 100 scale): 500 g ai/ha Preemergence, approx. 10 days
Description: as §1, §2

[3] = system: foxtail, giant (giant foxtail, Setaria faberii); assay: Test A preemergence, visual plant response rating; settings: for Foxtail, Giant plant response rating: 125 g ai/ha, preemergence, 0 to 100 scale, 0 no effect, 100 complete control; for Foxtail, Giant plant response rating (0 to 100 scale): 500 g ai/ha Preemergence, approx. 10 days
Description: as §1, §2

kochia (Kochia scoparia) [4] = assay: Test A preemergence, visual plant response rating; settings: for Kochia plant response rating: 125 g ai/ha, preemergence, 0 to 100 scale, 0 no effect, 100 complete control; for Kochia plant response rating (0 to 100 scale): 500 g ai/ha Preemergence, approx. 10 days
Description: as §1, §2

[5] = system: pigweed (Amaranthus retroflexus); assay: Test A preemergence, visual plant response rating; settings: for Pigweed plant response rating: 125 g ai/ha, preemergence, 0 to 100 scale, 0 no effect, 100 complete control; for Pigweed plant response rating (0 to 100 scale): 500 g ai/ha Preemergence, approx. 10 days
Description: as §1, §2

[6] = system: Italian ryegrass (Lolium multiflorum); assay: Test A postemergence, visual plant response rating; settings: for Ryegrass, Italian plant response rating (0 to 100 scale): 500 g ai/ha, postemergence, 0 is no effect, 100 is complete control; for Ryegrass, Italian plant response rating: Postemergence, 125 g ai/ha, 0 to 100 scale (0 no effect, 100 complete control)
Description: as §1, §2

[7] = system: barnyardgrass (Echinochloa crus-galli); assay: Test A postemergence, visual plant response rating; settings: for Barnyardgrass plant response rating (0 to 100 scale): 500 g ai/ha, postemergence, 0 is no effect, 100 is complete control; for Barnyardgrass plant response rating: Postemergence, 125 g ai/ha, 0 to 100 scale (0 no effect, 100 complete control)
Description: as §1, §2

[8] = system: blackgrass (Alopecurus myosuroides); assay: Test A postemergence, visual plant response rating; settings: for Blackgrass plant response rating (0 to 100 scale): 500 g ai/ha, postemergence, 0 is no effect, 100 is complete control; for Blackgrass plant response rating: Postemergence, 125 g ai/ha, 0 to 100 scale (0 no effect, 100 complete control)
Description: as §1, §2

corn (Zea mays) = assay: Test A postemergence, visual plant response rating; settings: for Corn plant response rating (0 to 100 scale): 500 g ai/ha, postemergence, 0 is no effect, 100 is complete control; for Corn plant response rating: Postemergence, 125 g ai/ha, 0 to 100 scale (0 no effect, 100 complete control)
Description: as §1, §2

[9] = system: foxtail, giant (giant foxtail, Setaria faberii); assay: Test A postemergence, visual plant response rating; settings: for Foxtail, Giant plant response rating (0 to 100 scale): 500 g ai/ha, postemergence, 0 is no effect, 100 is complete control; for Foxtail, Giant plant response rating: Postemergence, 125 g ai/ha, 0 to 100 scale (0 no effect, 100 complete control)
Description: as §1, §2

[10] = system: galium (catchweed bedstraw, Galium aparine); assay: Test A postemergence, visual plant response rating; settings: for Galium plant response rating (0 to 100 scale): 500 g ai/ha, postemergence, 0 is no effect, 100 is complete control; for Galium plant response rating: Postemergence, 125 g ai/ha, 0 to 100 scale (0 no effect, 100 complete control)
Description: as §1, §2

kochia (Kochia scoparia) [11] = assay: Test A postemergence, visual plant response rating; settings: for Kochia plant response rating (0 to 100 scale): 500 g ai/ha, postemergence, 0 is no effect, 100 is complete control; for Kochia plant response rating: Postemergence, 125 g ai/ha, 0 to 100 scale (0 no effect, 100 complete control)
Description: as §1, §2

[12] = system: pigweed (Amaranthus retroflexus); assay: Test A postemergence, visual plant response rating; settings: for Pigweed plant response rating (0 to 100 scale): 500 g ai/ha, postemergence, 0 is no effect, 100 is complete control; for Pigweed plant response rating: Postemergence, 125 g ai/ha, 0 to 100 scale (0 no effect, 100 complete control)
Description: as §1, §2

[13] = system: ragweed (common ragweed, Ambrosia elatior); assay: Test A postemergence, visual plant response rating; settings: for Ragweed plant response rating (0 to 100 scale): 500 g ai/ha, postemergence, 0 is no effect, 100 is complete control; for Ragweed plant response rating: Postemergence, 125 g ai/ha, 0 to 100 scale (0 no effect, 100 complete control)
Description: as §1, §2

[14] = system: wheat (Triticum aestivum); assay: Test A postemergence, visual plant response rating; settings: for Wheat plant response rating (0 to 100 scale): 500 g ai/ha, postemergence, 0 is no effect, 100 is complete control; for Wheat plant response rating: Postemergence, 125 g ai/ha, 0 to 100 scale (0 no effect, 100 complete control)
Description: as §1, §2

[15] = system: barnyardgrass (Echinochloa crus-galli); assay: Test B flooded paddy test, visual plant response rating; settings: 250 g ai/ha, Flood, applied to paddy water, 2-leaf stage, evaluated after 13 to 15 days
Experimental: (§3) Plant species in the flooded paddy test selected from rice (Oryza sativa), sedge, umbrella (small-flower umbrella sedge, Cyperus difformis), ducksalad (Heteranhera limosa), and barnyardgrass (Echinochloa crus-galli) were grown to the 2-leaf stage for testing. At time of treatment, test pots were flooded to 3 cm above the soil surface treated by application of test compounds directly to the paddy water, and then maintained at that water depth for the duration of the test. Treated plants and controls were maintained in a greenhouse for 13 to 15 days, after which time all species were compared to controls and visually evaluated. […] A dash (-) response means no test result.

[16] = system: ducksalad (Heteranhera limosa); assay: as above; settings: 250 g ai/ha, Flood, applied to paddy water, 2-leaf stage, evaluated after 13 to 15 days
Experimental: as §3

rice (Oryza sativa) = assay: as above; settings: 250 g ai/ha, Flood, applied to paddy water, 2-leaf stage, evaluated after 13 to 15 days
Experimental: as §3

[17] = system: sedge, umbrella (small-flower umbrella sedge, Cyperus difformis); assay: as above; settings: 250 g ai/ha, Flood, applied to paddy water, 2-leaf stage, evaluated after 13 to 15 days
Experimental: as §3

| Structure (SMILES) | Ryegrass, Italian plant response rating [1] | Ryegrass, Italian plant response rating (0 to 100 scale) [1] | Barnyardgrass plant response rating [2] | Barnyardgrass plant response rating (0 to 100 scale) [2] | Foxtail, Giant plant response rating [3] | Foxtail, Giant plant response rating (0 to 100 scale) [3] | Kochia plant response rating (kochia (Kochia scoparia) [4]) | Kochia plant response rating (0 to 100 scale) (kochia (Kochia scoparia) [4]) | Pigweed plant response rating [5] | Pigweed plant response rating (0 to 100 scale) [5] | Ryegrass, Italian plant response rating (0 to 100 scale) [6] | Ryegrass, Italian plant response rating [6] | Barnyardgrass plant response rating (0 to 100 scale) [7] | Barnyardgrass plant response rating [7] | Blackgrass plant response rating (0 to 100 scale) [8] | Blackgrass plant response rating [8] | Corn plant response rating (0 to 100 scale) (corn (Zea mays)) | Corn plant response rating (corn (Zea mays)) | Foxtail, Giant plant response rating (0 to 100 scale) [9] | Foxtail, Giant plant response rating [9] | further results |
| --- | --- | --- | --- | --- | --- | --- | --- | --- | --- | --- | --- | --- | --- | --- | --- | --- | --- | --- | --- | --- | --- |
| Cc1nn(C)c(=O)c(/C(=N/OC(C)C)c2ccc(F)c3ccccc23)c1O [Compound 88] | 90 | 100 | 70 | 90 | 90 | 100 | 10 | 90 | 100 | 100 | 100 | 100 | 80 | 50 | 90 | 80 | 30 | 10 | 90 | 80 | Galium plant response rating (0 to 100 scale) [10]: 90; Galium plant response rating [10]: 90; Kochia plant response rating (0 to 100 scale) (kochia (Kochia scoparia) [11]): 70; Kochia plant response rating (kochia (Kochia scoparia) [11]): 60; Pigweed plant response rating (0 to 100 scale) [12]: 100; Pigweed plant response rating [12]: 90; Ragweed plant response rating (0 to 100 scale) [13]: 90; Ragweed plant response rating [13]: 100; Wheat plant response rating (0 to 100 scale) [14]: 50; Wheat plant response rating [14]: 10; Plant response rating, Barnyardgrass (0 to 100 scale, 0 is no effect, 100 is complete control) [15]: 0; Plant response rating, Ducksalad (0 to 100 scale, 0 is no effect, 100 is complete control) [16]: 0; Plant response rating, Rice (0 to 100 scale, 0 is no effect, 100 is complete control) (rice (Oryza sativa)): 0; Plant response rating, Sedge, Umbrella (0 to 100 scale, 0 is no effect, 100 is complete control) [17]: 0 |
| Cc1nn(C)c(=O)c(/C(=N\OC(C)C)c2ccc(F)c3ccccc23)c1O [Compound 89] | 90 | 100 | 70 | 100 | 90 | 100 | 60 | 90 | 100 | 100 | 100 | 100 | 60 | 40 | 100 | 90 | 30 | 20 | 80 | 70 | Galium plant response rating (0 to 100 scale) [10]: 90; Galium plant response rating [10]: 90; Kochia plant response rating (0 to 100 scale) (kochia (Kochia scoparia) [11]): 80; Kochia plant response rating (kochia (Kochia scoparia) [11]): 70; Pigweed plant response rating (0 to 100 scale) [12]: 100; Pigweed plant response rating [12]: 80; Ragweed plant response rating (0 to 100 scale) [13]: 90; Ragweed plant response rating [13]: 90; Wheat plant response rating (0 to 100 scale) [14]: 70; Wheat plant response rating [14]: 50; Plant response rating, Barnyardgrass (0 to 100 scale, 0 is no effect, 100 is complete control) [15]: 0; Plant response rating, Ducksalad (0 to 100 scale, 0 is no effect, 100 is complete control) [16]: 0; Plant response rating, Rice (0 to 100 scale, 0 is no effect, 100 is complete control) (rice (Oryza sativa)): 0; Plant response rating, Sedge, Umbrella (0 to 100 scale, 0 is no effect, 100 is complete control) [17]: 0 |
| CO/N=C(/c1c(OC(C)=O)c(Cl)nn(C)c1=O)c1cccc2ccccc12 [Compound 132] | 0 | 0 | 70 | 80 | 40 | 90 | 90 | 90 | 80 | 80 | 20 | 10 | 60 | 20 | 60 | 40 | 10 | 10 | 60 | 40 | Galium plant response rating (0 to 100 scale) [10]: 100; Galium plant response rating [10]: 90; Kochia plant response rating (0 to 100 scale) (kochia (Kochia scoparia) [11]): 80; Kochia plant response rating (kochia (Kochia scoparia) [11]): 60; Pigweed plant response rating (0 to 100 scale) [12]: 70; Pigweed plant response rating [12]: 40; Ragweed plant response rating (0 to 100 scale) [13]: 90; Ragweed plant response rating [13]: 90; Wheat plant response rating (0 to 100 scale) [14]: 0; Wheat plant response rating [14]: 0; Plant response rating, Barnyardgrass (0 to 100 scale, 0 is no effect, 100 is complete control) [15]: 0; Plant response rating, Ducksalad (0 to 100 scale, 0 is no effect, 100 is complete control) [16]: 25; Plant response rating, Rice (0 to 100 scale, 0 is no effect, 100 is complete control) (rice (Oryza sativa)): 0; Plant response rating, Sedge, Umbrella (0 to 100 scale, 0 is no effect, 100 is complete control) [17]: 15 |
| CON=C(c1cc(Cl)ccc1Cl)c1c(O)c(C)nn(C)c1=O [Compound 90] | 60 | 90 | 60 | 80 | 50 | 90 | 50 | 70 | 90 | 100 | 90 | 80 | 60 | 20 | 90 | 80 | 30 | 20 | 80 | 30 | Galium plant response rating (0 to 100 scale) [10]: 90; Galium plant response rating [10]: 90; Kochia plant response rating (0 to 100 scale) (kochia (Kochia scoparia) [11]): 80; Kochia plant response rating (kochia (Kochia scoparia) [11]): 60; Pigweed plant response rating (0 to 100 scale) [12]: 90; Pigweed plant response rating [12]: 60; Ragweed plant response rating (0 to 100 scale) [13]: 90; Ragweed plant response rating [13]: 70; Wheat plant response rating (0 to 100 scale) [14]: 40; Wheat plant response rating [14]: 30; Plant response rating, Barnyardgrass (0 to 100 scale, 0 is no effect, 100 is complete control) [15]: 0; Plant response rating, Ducksalad (0 to 100 scale, 0 is no effect, 100 is complete control) [16]: 0; Plant response rating, Rice (0 to 100 scale, 0 is no effect, 100 is complete control) (rice (Oryza sativa)): 0; Plant response rating, Sedge, Umbrella (0 to 100 scale, 0 is no effect, 100 is complete control) [17]: 0 |
